In publication PMC2728345 (Toxicology and applied pharmacology, 2009):
Numbering of substitutions follows the chain as printed. Entries after “also recorded” stand apart in the source; their conditions may differ. Where two headings read alike, the source gives them in different places.

Legend:
[1] = target: T1, human PXR (Homo sapiens, UniProt O75469); test: Activation of human PXR in hPXR-HRE cells transfected with HCE1, HCE2 or vector; settings: 10 µM; for effect of carboxylesterase cotransfection on PXR activation: hPXR-HRE cells transfected with HCE1 or HCE2 vs vector; for decrease in PXR activation, HCE1 versus HCE2 cotransfection: hPXR-HRE cells
T1 sequence (O75469 1-434): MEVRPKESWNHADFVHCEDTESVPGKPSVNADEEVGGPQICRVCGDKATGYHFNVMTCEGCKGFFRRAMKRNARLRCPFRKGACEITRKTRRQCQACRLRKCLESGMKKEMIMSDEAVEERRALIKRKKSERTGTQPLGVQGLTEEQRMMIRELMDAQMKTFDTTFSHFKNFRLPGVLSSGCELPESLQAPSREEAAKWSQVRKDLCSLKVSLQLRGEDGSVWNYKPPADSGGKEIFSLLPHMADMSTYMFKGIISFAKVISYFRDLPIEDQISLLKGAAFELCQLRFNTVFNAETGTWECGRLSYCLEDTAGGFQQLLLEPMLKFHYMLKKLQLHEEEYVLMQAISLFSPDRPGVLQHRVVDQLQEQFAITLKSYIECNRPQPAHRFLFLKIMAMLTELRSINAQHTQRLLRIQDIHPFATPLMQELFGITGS

[2] = target: T2, carboxylesterase HCE1 (Homo sapiens, UniProt P23141); test: Hydrolysis of pyrethroids by recombinant HCE1; assay type: in vitro ADME; settings: recombinant HCE1 vs HCE2 lysates, Tris-HCl pH 7.4
T2 sequence (P23141 18-567): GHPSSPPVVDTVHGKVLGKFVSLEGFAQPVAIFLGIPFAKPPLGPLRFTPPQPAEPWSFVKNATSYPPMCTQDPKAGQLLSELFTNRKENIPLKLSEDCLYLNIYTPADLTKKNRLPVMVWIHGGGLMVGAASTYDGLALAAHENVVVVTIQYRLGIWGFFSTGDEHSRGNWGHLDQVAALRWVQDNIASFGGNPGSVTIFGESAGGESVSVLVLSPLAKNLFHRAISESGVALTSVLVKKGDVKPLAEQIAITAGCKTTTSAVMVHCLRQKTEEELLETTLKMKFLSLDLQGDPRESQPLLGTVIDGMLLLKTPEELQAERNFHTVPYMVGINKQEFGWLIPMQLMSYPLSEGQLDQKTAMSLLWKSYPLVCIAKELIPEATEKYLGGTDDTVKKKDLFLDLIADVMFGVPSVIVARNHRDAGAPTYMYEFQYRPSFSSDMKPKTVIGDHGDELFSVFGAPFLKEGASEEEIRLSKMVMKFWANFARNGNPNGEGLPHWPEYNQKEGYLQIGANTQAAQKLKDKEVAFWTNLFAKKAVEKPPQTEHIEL

[3] = 50 µg protein, pyrethroid 200 µM mixed with equal volume, Tris-HCl pH 7.4, 37°C
[4] = target: T3, carboxylesterase HCE2 (Homo sapiens, UniProt O00748); settings: Tris-HCl buffer pH 8.0; ref Nishi et al. (2006); cited from earlier work
T3 sequence (O00748 27-559): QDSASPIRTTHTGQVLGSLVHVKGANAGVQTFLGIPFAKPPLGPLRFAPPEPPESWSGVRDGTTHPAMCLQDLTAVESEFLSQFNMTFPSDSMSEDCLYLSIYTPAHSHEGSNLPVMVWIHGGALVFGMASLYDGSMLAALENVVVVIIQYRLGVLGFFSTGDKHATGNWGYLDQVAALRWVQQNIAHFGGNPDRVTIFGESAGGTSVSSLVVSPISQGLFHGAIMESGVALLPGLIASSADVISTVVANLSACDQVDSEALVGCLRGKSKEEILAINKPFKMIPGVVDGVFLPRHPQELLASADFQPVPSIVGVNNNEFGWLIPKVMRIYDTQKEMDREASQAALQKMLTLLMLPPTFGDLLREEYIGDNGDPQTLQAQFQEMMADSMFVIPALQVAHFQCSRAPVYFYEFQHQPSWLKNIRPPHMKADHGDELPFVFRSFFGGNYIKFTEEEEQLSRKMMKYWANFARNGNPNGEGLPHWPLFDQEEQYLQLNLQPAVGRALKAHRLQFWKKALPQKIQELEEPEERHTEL

[5] = system: rats or mice; settings: in vivo, po; cited from earlier work
[6] = target: T3, carboxylesterase HCE2; test: Hydrolysis of pyrethroids by recombinant HCE2; assay type: in vitro ADME; settings: recombinant HCE2 vs HCE1 lysates, Tris-HCl pH 7.4
[7] = target: T4, human PXR variant S208F (Homo sapiens, UniProt O75469, S208F)
T4 sequence (O75469 1-434 S208F): T1 sequence (O75469 1-434) with S208F

[8] = target: T1, human PXR; test: Activation of human PXR in stable line hPXR-HRE; settings: 10 µM, 24 h, ratio over DMSO
[9] = system: HCE2; test: HCE2 expression in human primary hepatocytes; assay type: cell-based; settings: 10 µM, 24 h
[10] = system: CYP3A4; test: CYP3A4 expression in human primary hepatocytes; settings: 10 µM, 24 h
[11] = target: T4, human PXR variant S208F; settings: HepG2 cotransfection, 10 µM, 24 h; words: compared with wild-type PXR
[12] = target: T5, human PXR variant L412I (Homo sapiens, UniProt O75469, L412I); settings: HepG2 cotransfection, 10 µM, 24 h
T5 sequence (O75469 1-434 L412I): T1 sequence (O75469 1-434) with L412I

CC1(C)[C@H](C(=O)O[C@H](C#N)c2cccc(Oc3ccccc3)c2)[C@@H]1C=C(Br)Br [Deltamethrin]
effect of carboxylesterase cotransfection on PXR activation [1]: markedly decreased | decrease in PXR activation, HCE1 versus HCE2 cotransfection [1]: much more decreases | preference for hydrolysis by HCE1 over HCE2 (words) [2]: much more active than HCE2; also recorded: preferably hydrolyzed by HCE1 | hydrolysis by pooled human liver microsomes (rate group / extent, in words) [3]: high rate | selective hydrolysis HCE2 vs HCE1 (literature) [4]: better substrate of HCE2 | LD50 [5]: 535 mg/kg

CC1(C)C(C=C(Cl)Cl)C1C(=O)OC(C#N)c1ccc(F)c(Oc2ccccc2)c1 (stereo not shown) [Baythroid]
preference for hydrolysis by HCE2 over HCE1 [6]: HCE2 preferably hydrolyzed | hydrolysis by pooled human liver microsomes (rate group / extent, in words) [3]: moderate rate | activation of PXR variant S208F [7]: 10.6 fold

CC1(C)[C@H](C(=O)O[C@H](C#N)c2cccc(Oc3ccccc3)c2)[C@@H]1/C=C(\Cl)C(F)(F)F (racemic) [lambda-Cyhalothrin]
effect of carboxylesterase cotransfection on PXR activation [1]: markedly decreased | decrease in PXR activation, HCE1 versus HCE2 cotransfection [1]: much more decreases | activation of human PXR [8]: stronger activator of human PXR | HCE2 protein (Western blotting) [9]: but not HCE1 or HCE2 protein | preference for hydrolysis by HCE1 over HCE2 (words) [2]: HCE1 preferably hydrolyzed; also recorded: much more active than HCE2 | CYP3A4 protein (Western blotting) [10]: significant increase | activation of PXR variant S208F [11]: no differences | hydrolysis by pooled human liver microsomes (rate group / extent, in words) [3]: moderate rate | LD50 [5]: 56 mg/kg | activation of PXR variant L412I compared with wild-type PXR [12]: less extent than the wild-type PXR
